Source: ChEMBL document CHEMBL1201862, “PubChem BioAssay data set” (2004)
Structures can show the parent of a compound that is named as a salt. Calls of active or inactive are those of the source.

What was measured:
[1] = molecular target: T1, Endoribonuclease toxin MazF (Escherichia coli K-12, UniProt P0AE70); assay: activation of MazEF endoribonuclease cleavage – biochemical, fluorescence, single-stranded RNA substrate, uHTS hits, dose response (AID 588481); assay type: functional
T1 sequence (P0AE70 whole entry): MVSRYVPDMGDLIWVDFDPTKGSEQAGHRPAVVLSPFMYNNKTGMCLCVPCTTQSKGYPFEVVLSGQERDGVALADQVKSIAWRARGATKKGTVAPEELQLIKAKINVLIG

[2] = molecular target: T1, Endoribonuclease toxin MazF; assay: substrate-only fluorescence increase artefacts – biochemical, single-stranded RNase substrate, counter-screen for MazEF activator project, dose response (AID 588502); assay type: functional
[3] = viability of uninfected HEp-2 cells – cell-based, HTS, cytotoxicity control for RSV inhibitor project, dose response (AID 2410); assay type: functional; details: human respiratory syncytial virus
Vero [4] = assay: cells; assay type: functional, cell-based; details: Chlorocebus sabaeus
Vero [5] = assay: cells; assay type: functional; details: Chlorocebus sabaeus
Cytochrome P450 3A4 = Cytochrome P450 3A4 (Homo sapiens, UniProt P08684);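 note: CYP3A4 tested as one member of a cytochrome P450 panel screen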
Cytochrome P450 3A4, sequence (P08684 whole entry): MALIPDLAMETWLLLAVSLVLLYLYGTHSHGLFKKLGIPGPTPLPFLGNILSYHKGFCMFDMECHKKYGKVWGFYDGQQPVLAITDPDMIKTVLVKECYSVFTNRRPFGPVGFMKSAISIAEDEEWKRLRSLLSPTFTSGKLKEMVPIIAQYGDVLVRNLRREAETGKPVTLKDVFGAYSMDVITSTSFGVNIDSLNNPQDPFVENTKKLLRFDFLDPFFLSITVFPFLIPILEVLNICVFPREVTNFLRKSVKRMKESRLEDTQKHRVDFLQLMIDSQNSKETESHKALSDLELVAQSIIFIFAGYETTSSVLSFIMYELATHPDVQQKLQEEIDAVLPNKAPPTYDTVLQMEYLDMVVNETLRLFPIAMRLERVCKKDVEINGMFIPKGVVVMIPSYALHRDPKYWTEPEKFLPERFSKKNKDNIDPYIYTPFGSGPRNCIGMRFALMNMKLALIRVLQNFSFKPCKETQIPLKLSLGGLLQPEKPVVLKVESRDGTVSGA

[6] = test system: Streptococcus sp. 'group A'; assay: Streptococcus pyogenes SK(-)GAS viability under kanamycin – luminescence, BacTiterGlo, confirmation, counter-screen for streptokinase expression inhibitor project, dose response (AID 1900); assay type: functional, organism-based
Beta-galactosidase = Beta-galactosidase (Escherichia coli, UniProt Q8VNN2); assay: PubChem AID 485352; assay type: functional
Beta-galactosidase, sequence (Q8VNN2 whole entry): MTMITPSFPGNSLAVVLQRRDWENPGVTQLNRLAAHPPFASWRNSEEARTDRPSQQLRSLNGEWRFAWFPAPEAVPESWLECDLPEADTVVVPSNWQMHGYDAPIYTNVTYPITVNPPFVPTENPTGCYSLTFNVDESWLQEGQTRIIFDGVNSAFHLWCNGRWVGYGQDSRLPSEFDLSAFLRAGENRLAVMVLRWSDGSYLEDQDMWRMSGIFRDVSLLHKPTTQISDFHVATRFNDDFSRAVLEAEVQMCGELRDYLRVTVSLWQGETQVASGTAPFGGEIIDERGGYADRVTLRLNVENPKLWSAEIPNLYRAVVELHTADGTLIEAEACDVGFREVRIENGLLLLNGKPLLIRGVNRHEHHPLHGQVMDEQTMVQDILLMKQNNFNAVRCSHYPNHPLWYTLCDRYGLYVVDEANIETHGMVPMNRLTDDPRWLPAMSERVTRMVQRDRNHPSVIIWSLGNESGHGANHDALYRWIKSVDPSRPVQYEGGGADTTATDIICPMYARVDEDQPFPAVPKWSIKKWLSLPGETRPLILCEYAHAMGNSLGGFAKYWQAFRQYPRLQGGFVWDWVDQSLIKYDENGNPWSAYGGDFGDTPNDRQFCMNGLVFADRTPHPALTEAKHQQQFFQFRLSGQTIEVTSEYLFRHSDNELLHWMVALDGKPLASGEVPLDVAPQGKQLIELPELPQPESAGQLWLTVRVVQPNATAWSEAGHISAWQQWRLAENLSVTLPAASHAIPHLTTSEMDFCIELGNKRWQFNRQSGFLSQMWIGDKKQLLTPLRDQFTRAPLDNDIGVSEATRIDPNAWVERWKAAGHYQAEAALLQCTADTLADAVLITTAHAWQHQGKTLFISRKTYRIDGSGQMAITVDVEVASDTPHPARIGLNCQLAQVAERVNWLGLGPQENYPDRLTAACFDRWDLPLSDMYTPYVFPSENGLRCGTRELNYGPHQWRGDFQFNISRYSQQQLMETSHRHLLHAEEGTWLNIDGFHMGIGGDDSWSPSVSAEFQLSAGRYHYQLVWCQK

[7] = molecular target: T2, Type-1 angiotensin II receptor (Homo sapiens, UniProt P30556); assay: antagonism of angiotensin II type 1 receptor – cell-based, uHTS hits, selectivity assay for APJ receptor antagonist project, dose response (AID 463214); assay type: functional;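 note: antagonist potency against angiotensin II stimulated AT1 response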
T2 sequence (P30556 whole entry): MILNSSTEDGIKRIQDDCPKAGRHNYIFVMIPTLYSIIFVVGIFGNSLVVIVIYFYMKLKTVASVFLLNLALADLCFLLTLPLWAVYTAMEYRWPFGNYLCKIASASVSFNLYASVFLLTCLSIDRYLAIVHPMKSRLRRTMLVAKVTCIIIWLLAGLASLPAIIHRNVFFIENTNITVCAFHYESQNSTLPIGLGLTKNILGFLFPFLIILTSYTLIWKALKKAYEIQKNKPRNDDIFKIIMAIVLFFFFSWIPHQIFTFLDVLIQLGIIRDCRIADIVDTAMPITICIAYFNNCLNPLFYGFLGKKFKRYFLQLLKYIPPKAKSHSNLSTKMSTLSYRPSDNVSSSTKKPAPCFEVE

Streptococcus = assay: GAS UMAA2166 growth inhibition – luminescence, BacTiterGlo, counter-screen for streptokinase expression inhibitor project, dose response (AID 1915); assay type: functional, organism-based;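 note: potency for reduction of bacterial viability or growth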
[8] = luciferase reporter signal suppression in cells – H4 neuroglioma cells, luminescence, dose response (AID 1990); assay type: functional, cell-based
[9] = Luminescence Cell-Based Dose Response HTS to Identify Inhibitors of 5'UTR Stem-Loop Driven Prion Protein mRNA Translation in H4 Neuroglioblastoma Cells. [Related pubchem assays: 1827 (Project Summary), 1813 (Primary HTS)]; assay type: functional
[10] = alpha-synuclein stem-loop luciferase translation blockers – H4 neuroglioma cells, luminescence, confirmation (AID 1988); assay type: functional, cell-based
[11] = molecular target: T3, Microphthalmia-associated transcription factor (Homo sapiens, UniProt O75030); assay: reducers of TRPM1 reporter luminescence, concentration series – cell-based, SK-MEL-5, cherry-picked, set 3, MITF inhibitor project, dose response (AID 493073); assay type: functional;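 note: SK-MEL-5 melanoma cells with luciferase driven by the MITF target TRPM1 promoter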
T3 sequence (O75030 whole entry): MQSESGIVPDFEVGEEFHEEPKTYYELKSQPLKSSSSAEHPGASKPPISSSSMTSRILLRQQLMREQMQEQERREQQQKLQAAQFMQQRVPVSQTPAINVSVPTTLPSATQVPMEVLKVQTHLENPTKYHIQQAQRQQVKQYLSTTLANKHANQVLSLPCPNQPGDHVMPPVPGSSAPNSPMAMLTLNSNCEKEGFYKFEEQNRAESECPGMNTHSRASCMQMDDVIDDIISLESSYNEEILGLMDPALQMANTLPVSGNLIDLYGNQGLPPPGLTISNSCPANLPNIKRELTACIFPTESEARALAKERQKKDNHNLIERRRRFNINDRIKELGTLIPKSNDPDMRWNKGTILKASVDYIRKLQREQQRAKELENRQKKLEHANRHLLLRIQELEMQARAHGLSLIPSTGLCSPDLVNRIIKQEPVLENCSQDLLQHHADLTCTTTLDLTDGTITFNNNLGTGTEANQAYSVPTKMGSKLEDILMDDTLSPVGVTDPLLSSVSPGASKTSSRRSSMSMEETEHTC

[12] = molecular target: T4, Replicative DNA helicase DnaB (Mycobacterium tuberculosis, UniProt P9WMR3); assay: DnaB intein splicing inhibitors, dose response, biochemical, cell-free fluorescence (AID 449749); assay type: functional
T4 sequence (P9WMR3 whole entry): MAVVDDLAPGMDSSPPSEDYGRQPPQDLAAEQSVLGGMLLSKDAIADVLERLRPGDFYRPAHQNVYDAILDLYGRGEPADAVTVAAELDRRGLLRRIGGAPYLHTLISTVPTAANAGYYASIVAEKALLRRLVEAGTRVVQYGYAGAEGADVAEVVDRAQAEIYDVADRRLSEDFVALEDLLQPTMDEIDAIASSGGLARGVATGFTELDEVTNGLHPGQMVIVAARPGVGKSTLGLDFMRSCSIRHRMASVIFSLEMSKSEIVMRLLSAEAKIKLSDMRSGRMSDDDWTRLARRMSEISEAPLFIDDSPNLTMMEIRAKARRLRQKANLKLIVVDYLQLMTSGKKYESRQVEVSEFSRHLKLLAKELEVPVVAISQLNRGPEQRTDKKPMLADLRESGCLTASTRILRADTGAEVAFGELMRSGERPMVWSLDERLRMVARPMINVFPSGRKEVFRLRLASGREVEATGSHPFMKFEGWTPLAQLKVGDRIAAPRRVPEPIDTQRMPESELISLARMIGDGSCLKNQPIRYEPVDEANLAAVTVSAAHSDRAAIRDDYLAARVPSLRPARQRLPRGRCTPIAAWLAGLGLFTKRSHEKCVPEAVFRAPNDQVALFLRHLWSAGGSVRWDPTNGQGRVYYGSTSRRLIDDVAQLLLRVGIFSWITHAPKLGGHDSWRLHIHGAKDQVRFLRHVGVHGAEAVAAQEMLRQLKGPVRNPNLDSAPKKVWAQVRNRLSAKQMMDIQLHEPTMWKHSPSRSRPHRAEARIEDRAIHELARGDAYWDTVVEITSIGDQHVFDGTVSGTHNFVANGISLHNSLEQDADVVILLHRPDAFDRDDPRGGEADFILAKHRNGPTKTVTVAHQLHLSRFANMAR

Protein RecA = molecular target: T5, Protein RecA (Mycobacterium tuberculosis, UniProt P9WHJ3); assay: Fluorescence Cell-Free Homogeneous Dose Retest to Identify Inhibitors of RecA-Intein Splicing Activity. [Related pubchem assays (depositor defined):AID2097, AID2223, AID489010, AID492950]; assay type: functional
T5 sequence (P9WHJ3 whole entry): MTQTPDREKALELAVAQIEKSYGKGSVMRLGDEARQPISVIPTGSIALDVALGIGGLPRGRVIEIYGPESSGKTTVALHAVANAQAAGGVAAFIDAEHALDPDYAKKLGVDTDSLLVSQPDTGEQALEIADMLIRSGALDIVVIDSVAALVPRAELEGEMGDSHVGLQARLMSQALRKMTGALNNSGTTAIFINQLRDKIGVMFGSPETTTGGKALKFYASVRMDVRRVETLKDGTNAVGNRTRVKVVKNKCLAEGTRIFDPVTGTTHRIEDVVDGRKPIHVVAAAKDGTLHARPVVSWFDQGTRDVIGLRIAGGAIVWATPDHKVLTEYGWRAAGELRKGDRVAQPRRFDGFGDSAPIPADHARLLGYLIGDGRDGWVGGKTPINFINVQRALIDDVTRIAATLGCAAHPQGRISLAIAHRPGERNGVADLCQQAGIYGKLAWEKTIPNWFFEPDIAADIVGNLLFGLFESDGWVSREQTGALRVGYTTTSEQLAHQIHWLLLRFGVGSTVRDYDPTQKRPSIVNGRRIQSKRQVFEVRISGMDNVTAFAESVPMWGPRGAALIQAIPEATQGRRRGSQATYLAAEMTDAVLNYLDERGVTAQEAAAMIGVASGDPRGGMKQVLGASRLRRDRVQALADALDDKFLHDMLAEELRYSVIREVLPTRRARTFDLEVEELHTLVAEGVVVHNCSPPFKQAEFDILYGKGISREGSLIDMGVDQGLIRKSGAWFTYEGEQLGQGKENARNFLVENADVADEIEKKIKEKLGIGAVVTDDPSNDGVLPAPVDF

Cysteine protease ATG4B = molecular target: T6, Cysteine protease ATG4B (Homo sapiens, UniProt Q9Y4P1); assay type: functional;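 note: Fluorescence-based dose-response confirmation assay measuring inhibition of ATG4B activity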
T6 sequence (Q9Y4P1 whole entry): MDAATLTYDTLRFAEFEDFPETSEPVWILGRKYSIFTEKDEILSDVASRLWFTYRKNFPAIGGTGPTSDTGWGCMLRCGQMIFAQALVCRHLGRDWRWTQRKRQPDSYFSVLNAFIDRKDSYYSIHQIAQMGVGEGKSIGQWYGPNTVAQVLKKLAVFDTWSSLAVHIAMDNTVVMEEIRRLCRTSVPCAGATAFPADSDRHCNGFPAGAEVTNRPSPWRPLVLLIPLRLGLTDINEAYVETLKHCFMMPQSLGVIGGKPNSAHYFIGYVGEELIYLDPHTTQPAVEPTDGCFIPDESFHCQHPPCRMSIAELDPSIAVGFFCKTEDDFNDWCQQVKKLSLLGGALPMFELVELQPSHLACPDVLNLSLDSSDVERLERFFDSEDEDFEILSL

Phospholipase A2 = Phospholipase A2 (Homo sapiens, UniProt P04054); assay type: functional;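 note: confirmatory dose-response counterscreen on phospholipase A2, testing hits that came from an ultra-high-throughput screen for ATG4B inhibitors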
Phospholipase A2, sequence (P04054 whole entry): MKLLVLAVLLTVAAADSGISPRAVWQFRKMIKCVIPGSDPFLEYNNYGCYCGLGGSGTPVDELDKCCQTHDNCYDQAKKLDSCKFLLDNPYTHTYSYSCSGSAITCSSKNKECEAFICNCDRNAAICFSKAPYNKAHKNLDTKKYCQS

Vero [13] = assay: viability of Vero cells under compound – cytotoxicity control for flavivirus capping enzyme inhibitors (AID 588742); assay type: functional; details: Chlorocebus sabaeus
Genome polyprotein = Genome polyprotein (dengue virus type 2, UniProt P29990); assay: flavivirus cap methylation enzyme inhibition – biochemical, confirmation dose response, primary screen (AID 588689); assay type: functional
Genome polyprotein, sequence (P29990 2492-3391 limits assumed): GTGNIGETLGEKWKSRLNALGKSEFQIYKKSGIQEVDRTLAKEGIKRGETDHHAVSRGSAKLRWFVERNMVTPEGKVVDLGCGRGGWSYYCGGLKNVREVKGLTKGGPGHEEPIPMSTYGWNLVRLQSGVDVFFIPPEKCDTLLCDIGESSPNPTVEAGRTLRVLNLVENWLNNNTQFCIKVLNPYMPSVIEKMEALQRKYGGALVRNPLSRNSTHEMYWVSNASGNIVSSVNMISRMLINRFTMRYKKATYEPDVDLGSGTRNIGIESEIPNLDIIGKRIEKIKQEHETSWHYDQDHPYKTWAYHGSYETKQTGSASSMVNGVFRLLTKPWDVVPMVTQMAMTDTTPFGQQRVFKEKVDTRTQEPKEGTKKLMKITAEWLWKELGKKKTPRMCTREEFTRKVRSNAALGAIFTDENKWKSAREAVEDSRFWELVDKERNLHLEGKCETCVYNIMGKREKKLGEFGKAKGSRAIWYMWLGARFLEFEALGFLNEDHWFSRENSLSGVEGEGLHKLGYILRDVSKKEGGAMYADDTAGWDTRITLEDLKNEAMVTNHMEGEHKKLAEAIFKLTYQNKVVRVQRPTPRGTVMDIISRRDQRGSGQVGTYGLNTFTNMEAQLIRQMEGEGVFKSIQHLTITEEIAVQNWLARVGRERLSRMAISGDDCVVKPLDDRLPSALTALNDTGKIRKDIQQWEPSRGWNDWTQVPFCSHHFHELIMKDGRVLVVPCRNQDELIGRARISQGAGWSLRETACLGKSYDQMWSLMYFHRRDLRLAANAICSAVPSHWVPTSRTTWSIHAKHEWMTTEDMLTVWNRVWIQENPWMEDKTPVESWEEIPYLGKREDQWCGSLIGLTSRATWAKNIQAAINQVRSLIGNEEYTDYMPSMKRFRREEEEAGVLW

[14] = molecular target: T7, Ubiquitin-conjugating enzyme E2 N (Homo sapiens, UniProt P61088); assay type: functional;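 note: Dose-response confirmation in a TR-FRET assay detecting UBC13-driven polyubiquitin chain formation, inhibition measured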
T7 sequence (P61088 whole entry): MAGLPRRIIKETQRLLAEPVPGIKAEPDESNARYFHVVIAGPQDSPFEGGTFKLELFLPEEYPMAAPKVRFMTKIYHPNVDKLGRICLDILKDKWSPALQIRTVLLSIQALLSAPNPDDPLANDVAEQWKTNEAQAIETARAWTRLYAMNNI

[15] = molecular target: Voltage-gated inwardly rectifying potassium channel KCNH2 (Homo sapiens, UniProt Q12809); details: Potency;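 note: confirmatory quantitative high-throughput screen measuring inhibition of hERG channel activity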
Voltage-gated inwardly rectifying potassium channel KCNH2, sequence (Q12809 whole entry): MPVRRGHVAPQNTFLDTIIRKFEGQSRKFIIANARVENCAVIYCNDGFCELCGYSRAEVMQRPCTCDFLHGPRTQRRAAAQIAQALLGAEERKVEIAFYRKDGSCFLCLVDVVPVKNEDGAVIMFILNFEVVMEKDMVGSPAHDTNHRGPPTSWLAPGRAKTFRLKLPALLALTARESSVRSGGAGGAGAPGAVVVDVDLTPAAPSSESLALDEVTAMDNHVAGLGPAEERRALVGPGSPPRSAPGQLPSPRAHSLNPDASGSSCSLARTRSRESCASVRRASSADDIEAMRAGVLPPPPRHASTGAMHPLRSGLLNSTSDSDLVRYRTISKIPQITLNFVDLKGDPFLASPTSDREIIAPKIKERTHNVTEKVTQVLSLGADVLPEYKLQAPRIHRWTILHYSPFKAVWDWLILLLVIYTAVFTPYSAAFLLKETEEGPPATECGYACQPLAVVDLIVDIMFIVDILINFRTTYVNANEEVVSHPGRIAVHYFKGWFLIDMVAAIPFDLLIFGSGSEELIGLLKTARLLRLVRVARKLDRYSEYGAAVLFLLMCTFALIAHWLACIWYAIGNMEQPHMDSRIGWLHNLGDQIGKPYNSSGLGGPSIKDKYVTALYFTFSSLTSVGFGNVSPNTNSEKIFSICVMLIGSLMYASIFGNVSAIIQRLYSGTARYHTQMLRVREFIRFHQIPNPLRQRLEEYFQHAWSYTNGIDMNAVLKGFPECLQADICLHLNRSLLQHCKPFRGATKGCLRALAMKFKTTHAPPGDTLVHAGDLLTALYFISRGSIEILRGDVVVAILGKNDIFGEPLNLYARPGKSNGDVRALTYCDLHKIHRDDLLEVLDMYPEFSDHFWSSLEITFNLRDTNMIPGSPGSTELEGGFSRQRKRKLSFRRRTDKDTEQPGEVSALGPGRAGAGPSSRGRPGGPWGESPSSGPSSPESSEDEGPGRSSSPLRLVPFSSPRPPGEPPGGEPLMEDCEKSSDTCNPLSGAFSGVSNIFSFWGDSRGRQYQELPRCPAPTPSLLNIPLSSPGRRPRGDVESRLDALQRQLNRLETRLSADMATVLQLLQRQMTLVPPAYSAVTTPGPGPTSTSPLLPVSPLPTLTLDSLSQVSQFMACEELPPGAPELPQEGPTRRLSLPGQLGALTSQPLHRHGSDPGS

CNc1ccc(/C=C(\C#N)C(=O)Nc2ccccn2)cc1[N+](=O)[O-]
EC50 [1]: > 99 µM (inactive) | EC50 [2]: 39.2 µM (inactive)

COC(=O)CSc1nc2cc(OC)ccc2cc1C#N
EC50 [1]: > 99 µM (inactive) | EC50 [2]: 48.4 µM (inactive)

CCOC(=O)c1c(-c2cccc(C)c2)csc1NC(=O)c1c(-c2ccccc2)noc1C
CC50 [3]: 5.17 µM (active) | IC50 (Vero [4]): 1.43 µM (active) | CC50 (Vero [5]): > 25 µM (active) | AC50 (Cytochrome P450 3A4): 5.62 µM (inconclusive) | IC50 (cells): 9.89 µM (active)

O=C(CN1c2ccccc2Sc2ccccc21)NNC(=S)Nc1ccc(Cl)cc1
EC50 [6]: 3.35 µM (active) | EC50 (Beta-galactosidase): > 40 µM (inactive) | IC50 [7]: > 40 µM (not active) | EC50 (Streptococcus): 3.6 µM (active)

COc1ccc(/C=C/C(=O)NC(=S)NNC(=O)c2c(-c3ccccc3)noc2C)cc1
EC50 (Beta-galactosidase): > 40 µM (inactive) | IC50 [7]: 35.5 µM (not active)

O=C1c2ccccc2C(=O)c2c1ncn2-c1ccccc1
EC50 [8]: 13.1 µM (active) | EC50 [9]: 15.6 µM (active) | EC50 [10]: 9.51 µM (active) | AC50 [11]: 7.33 µM (active) | AC50 [12]: 57.3 µM (active) | EC50 (Protein RecA): 229 µM (active)

Cc1ccccc1S(=O)(=O)N1[C@@H](c2ccc(Br)cc2)C(C(=O)O)=CC[C@H]1c1ccc(Cl)cc1
IC50 (Cysteine protease ATG4B): 7.71 µM (active) | IC50 (Phospholipase A2): 6.72 µM (active) | CC50 (Vero [13]): > 40 µM (active) | IC50 (Genome polyprotein): 41.4 µM (active)

CN(C)c1ccc(C=C2C(=O)NC(=S)NC2=O)cc1
CC50 (Vero [13]): 31.4 µM (active) | IC50 (Vero [4]): > 25 µM (active) | CC50 (Vero [5]): 22.2 µM (active)

CC1(C)Oc2ccc3ccc(=O)oc3c2C(/C=N/NC(N)=O)=C1O
EC50 (Beta-galactosidase): > 40 µM (inactive) | IC50 [7]: > 40 µM (not active)

N=c1n(CC(=O)c2ccc(Br)cc2)c2ccccc2n1Cc1ccccc1
IC50 [14]: > 20 µM (inactive) | AC50 [11]: 6.41 µM (active)

CCOc1ccc2nc(N)sc2c1
AC50 [15]: 28.2 µM (inconclusive)

c1ccc2c(c1)-c1cccc3cccc-2c13 [FLUORANTHENE]
AC50 [15]: 12.6 µM (inconclusive)

CN1CCC(=C2c3ccccc3CC(=O)c3sccc32)CC1 [KETOTIFEN FUMARATE]
AC50 [15]: 22.4 µM (inconclusive)
